In patent US11319343B2, “Method of treatment” (ROYAL MELBOURNE INSTITUTE OF TECHNOLOGY, priority 2017, dated 2022):
Residues, ends and D or L forms follow the SMILES beside them. No end group written: not given here.

What was measured:
[1] = tested on: mouse primary alveolar macrophages; assay type: cell-based
[2] = tested on: PKC; assay: Cytosolic PKC activity, FRET biosensor cytoCKAR; assay type: cell-based, mouse; conditions: WT macrophages, imiquimod, within 5 min
[3] = tested on: pERK1/2; assay: Cytosolic pERK1/2 activity, FRET biosensor; assay type: cell-based, mouse; conditions: TLR7-dependent manner
[4] = tested on: macrophage mitochondrial superoxide; assay: Macrophage mitochondrial superoxide production; assay type: cell-based; conditions: TLR7 activation with imiquimod
[5] = molecular target: T1, TLR7 (Mus musculus, UniProt P58681); assay type: cell-based; conditions: for IFN-β, IL-1β, TNF-α and IL-6 expression in response to imiquimod: apocynin 300 μM pre-treatment, SOD 300 U/mL (basal or imiquimod-stimulated), catalase 1000 U/mL
T1 construct: endogenous in cells; host or cells: immortalized bone marrow-derived macrophages (BMDMs) or RAW264.7 cells
T1 sequence (P58681 27-1050): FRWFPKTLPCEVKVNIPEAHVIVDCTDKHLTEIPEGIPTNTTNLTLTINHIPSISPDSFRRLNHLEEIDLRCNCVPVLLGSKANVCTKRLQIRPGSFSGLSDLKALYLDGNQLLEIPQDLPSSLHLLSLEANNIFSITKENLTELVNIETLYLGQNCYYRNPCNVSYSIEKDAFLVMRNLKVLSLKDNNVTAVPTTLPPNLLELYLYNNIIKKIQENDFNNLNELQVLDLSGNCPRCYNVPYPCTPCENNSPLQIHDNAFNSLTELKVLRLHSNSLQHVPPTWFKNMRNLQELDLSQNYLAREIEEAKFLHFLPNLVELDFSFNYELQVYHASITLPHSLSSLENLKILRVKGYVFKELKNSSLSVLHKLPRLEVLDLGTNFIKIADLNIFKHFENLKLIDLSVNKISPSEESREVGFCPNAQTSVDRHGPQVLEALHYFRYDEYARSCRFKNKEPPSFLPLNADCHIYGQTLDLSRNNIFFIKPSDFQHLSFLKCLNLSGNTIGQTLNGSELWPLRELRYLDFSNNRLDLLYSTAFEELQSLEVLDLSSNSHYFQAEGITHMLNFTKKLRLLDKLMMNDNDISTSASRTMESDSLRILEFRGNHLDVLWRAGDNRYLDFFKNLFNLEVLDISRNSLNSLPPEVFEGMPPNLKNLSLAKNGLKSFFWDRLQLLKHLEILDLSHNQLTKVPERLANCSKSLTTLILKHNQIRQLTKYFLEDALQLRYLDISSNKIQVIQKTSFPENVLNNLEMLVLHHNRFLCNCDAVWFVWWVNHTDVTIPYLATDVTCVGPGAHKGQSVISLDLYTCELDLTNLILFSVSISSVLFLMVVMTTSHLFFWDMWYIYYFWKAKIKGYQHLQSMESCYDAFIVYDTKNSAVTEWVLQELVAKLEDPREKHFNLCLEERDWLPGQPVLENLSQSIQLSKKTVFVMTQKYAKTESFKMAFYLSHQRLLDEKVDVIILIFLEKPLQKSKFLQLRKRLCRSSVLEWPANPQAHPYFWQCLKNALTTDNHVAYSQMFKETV

[6] = tested on: TLR7 responses; assay type: in vivo; conditions: imiquimod 50 μg/mouse intranasally, 24 h
[7] = tested on: human alveolar macrophages; assay type: cell-based; conditions: imiquimod 10 μg/mL, AMs from human
[8] = tested on: influenza A virus strain HKx31 (H3N2); assay type: cell-based
[9] = tested on: NOX2 oxidase; assay: NOX2 oxidase assembly (NOX2-p47phox association), confocal fluorescence microscopy; conditions: pre-treatment: Dynasore 100 μM, bafilomycin A 100 nM, PD98059 30 μM
[10] = molecular target: T1, TLR7; assay: TLR7 agonist response (cytokine expression) in bone marrow derived macrophages with C98i peptides; assay type: cell-based; conditions: for inhibition of TLR7 agonist, imiquimod, response in vitro (IL-6 mRNA expression): peptides 100 μM + 10 μg/ml imiquimod, no TAT
[11] = Cell viability after C98i peptides; assay type: cell-based
[12] = tested on: HKx31 influenza A virus; conditions: mouse, in vivo
[13] = molecular target: T2, xanthine oxidase (Bos taurus, UniProt P80457); assay: Xanthine/xanthine oxidase cell-free superoxide assay (ROS scavenging); assay type: biochemical; conditions: 1 μM
T2 construct: purchased Sigma X1875
Experimental: Briefly, Krebs-HEPES buffer containing L-O12 (100 μM) was added into a 96-well Optiview plate. Following this, 0.1% w/v DMSO, unconjugated gp91dstat (Ugp91ds-TAT, 1 μM) or cholestanol-conjugated gp91ds-TAT (1 μM) were added in combination with Xanthine (100 μM). Immediately after xanthine oxidase (0.03 U/mL) was added, photon emission [relative light units (RLU)/s] was detected using the Chameleon (Trademark) luminescence detector (Hidex, model 425105, Finland) and recorded from each well for 1 s over 60 cycles. Individual data points for each group were derived from the average values of the three replicates minus the respective blank controls. Data are represented as raw values.

[14] = tested on: TLR3; assay type: cell-based, mouse; conditions: poly I:C 25 μg/mL; apocynin pre-treatment
[15] = tested on: TLR9; assay type: cell-based, mouse; conditions: CpG 10 μg/mL; apocynin
[16] = tested on: TLR7; assay type: cell-based, mouse

T2 sequence (P80457 whole entry): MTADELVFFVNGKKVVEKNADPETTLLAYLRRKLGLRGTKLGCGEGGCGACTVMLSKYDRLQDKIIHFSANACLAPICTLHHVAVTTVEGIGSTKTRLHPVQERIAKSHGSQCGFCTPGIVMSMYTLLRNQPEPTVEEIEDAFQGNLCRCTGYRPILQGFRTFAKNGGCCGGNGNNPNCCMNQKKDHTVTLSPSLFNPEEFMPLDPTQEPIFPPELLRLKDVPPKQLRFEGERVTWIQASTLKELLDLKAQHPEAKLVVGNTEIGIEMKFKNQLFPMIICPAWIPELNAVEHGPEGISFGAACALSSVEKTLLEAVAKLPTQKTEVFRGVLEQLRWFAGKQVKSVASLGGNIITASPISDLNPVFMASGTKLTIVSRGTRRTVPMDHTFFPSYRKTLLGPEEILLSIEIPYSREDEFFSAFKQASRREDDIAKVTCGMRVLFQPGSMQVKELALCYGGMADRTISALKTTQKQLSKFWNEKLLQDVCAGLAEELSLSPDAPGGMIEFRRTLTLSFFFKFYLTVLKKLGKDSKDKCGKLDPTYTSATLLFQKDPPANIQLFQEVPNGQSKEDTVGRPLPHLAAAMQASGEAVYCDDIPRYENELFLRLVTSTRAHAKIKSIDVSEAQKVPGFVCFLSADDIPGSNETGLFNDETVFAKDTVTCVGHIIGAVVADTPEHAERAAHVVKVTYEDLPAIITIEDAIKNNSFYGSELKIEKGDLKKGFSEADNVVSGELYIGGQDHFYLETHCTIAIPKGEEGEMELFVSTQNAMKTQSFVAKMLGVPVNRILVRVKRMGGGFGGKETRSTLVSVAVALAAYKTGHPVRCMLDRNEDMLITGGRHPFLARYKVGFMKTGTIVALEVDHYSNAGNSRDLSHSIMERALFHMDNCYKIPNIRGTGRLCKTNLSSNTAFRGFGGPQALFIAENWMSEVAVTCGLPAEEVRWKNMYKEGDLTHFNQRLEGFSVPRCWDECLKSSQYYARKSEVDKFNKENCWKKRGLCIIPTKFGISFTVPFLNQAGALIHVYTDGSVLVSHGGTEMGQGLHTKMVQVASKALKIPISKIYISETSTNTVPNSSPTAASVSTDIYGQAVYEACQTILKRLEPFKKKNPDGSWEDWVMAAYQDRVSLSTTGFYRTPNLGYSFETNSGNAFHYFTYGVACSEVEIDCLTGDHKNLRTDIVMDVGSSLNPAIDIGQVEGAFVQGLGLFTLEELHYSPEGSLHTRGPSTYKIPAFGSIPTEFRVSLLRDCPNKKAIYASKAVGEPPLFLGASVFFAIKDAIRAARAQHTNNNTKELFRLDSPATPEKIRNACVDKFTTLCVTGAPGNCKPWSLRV

## CC(C)Cn1cnc2c(N)nc3ccccc3c21 [imiquimod]
[1]
  endosomal ROS production caused by the agonist: markedly increased endosomal ROS
[2]
  cytosolic PKC activity: elevated cytosolic PKC activity
[3]
  cytosolic pERK1/2: increased cytosolic pERK1/2
[4]
  macrophage mitochondrial superoxide production: failed to increase
[5]; imiquimod alone, WT macrophages
  IFN-β, IL-1β, TNF-α and IL-6 expression: significant elevation
[6]; NOX2−/y mice
  lung IFN-β, IL-1β, IL-6 and TNF-α: elevated levels
[6]; WT and NOX2−/y mice
  airway inflammation: no discernible alterations
[7]
  endosomal ROS production caused by the agonist: markedly increased endosomal ROS

## O=C(N/N=C/c1ccc(O)c(O)c1)c1cc2ccccc2cc1O [Dynasore]
[8]
  influenza nucleoprotein (NP) fluorescence: almost abolished
[5]; WT macrophages treated with Dynasore (100 μM)
  catalase-dependent increase in cytokines: significantly suppressed
[9]
  co-location (association) of NOX2 and p47phox caused by influenza virus: reduced

## RANC-NH2
[10]
  inhibition of TLR7 agonist, imiquimod, response in vitro (IL-6 mRNA expression): none

## CC(C)C[C@H](NC(=O)[C@@H](NC(=O)[C@@H]1CCCN1C(=O)[C@@H](NC(=O)[C@H](CS)NC(=O)[C@H](CC(N)=O)NC(=O)[C@H](CS)NC(=O)[C@H](CCCNC(=N)N)NC(=O)[C@H](CC(C)C)NC(=O)[C@H](CC(=O)O)NC(=O)[C@H](CCCNC(=N)N)NC(=O)[C@H](CCCNC(=N)N)NC(=O)[C@H](CCCNC(=N)N)NC(=O)[C@H](CCC(N)=O)NC(=O)[C@H](CCCNC(=N)N)NC(=O)[C@H](CCCNC(=N)N)NC(=O)[C@H](CCCCN)NC(=O)[C@H](CCCCN)NC(=O)[C@H](CCCNC(=N)N)NC(=O)CNC(=O)[C@@H](N)Cc1ccc(O)cc1)C(C)C)C(C)C)C(N)=O [C98i] (H-YGRKKRRQRRRDLRCNCVPVL-NH2)
[11]
  cell viability: no adverse effect

## YGRKK-RRQRR-RCSTR-IRRQL-NH2 [Ugp91ds-TAT]
[12]
  decrease in lung influenza A viral burden: ~10,000 fold
  lung IFN-β mRNA levels compared to the control virus group: failed to do so
  superoxide production in BALF inflammatory cells: almost abolished
  weight loss caused by influenza A virus at day 3: significantly reduced the weight loss

## Ac-Asp(OChol)-PEG4-PEG3-PEG4-gp91-NH2 [Cgp91ds-TAT]
[13]
  ROS scavenging properties: not attributed to enhanced ROS scavenging properties
[12]
  airway inflammation: almost abolished
  decrease in lung influenza A viral burden: ~10,000 fold
  lung IFN-β mRNA levels compared to the control virus group: significantly increased
  reduction in airways inflammation: ~40%
  superoxide production in BALF inflammatory cells: almost abolished
  weight loss caused by influenza A virus at day 3: significantly reduced the weight loss

## CC(C)C[C@H](NC(=O)[C@@H](NC(=O)[C@@H]1CCCN1C(=O)[C@@H](NC(=O)[C@H](CS)NC(=O)[C@H](CC(N)=O)NC(=O)[C@H](CS)NC(=O)[C@H](CCCNC(=N)N)NC(=O)[C@H](CC(C)C)NC(=O)[C@@H](N)CC(=O)O)C(C)C)C(C)C)C(N)=O [C98i no TAT, DLRCNCVPVL-NH2] (H-DLRCNCVPVL-NH2)
[11]
  cell viability: no adverse effect

## COc1cccc(-c2cc(=O)c3ccccc3o2)c1N [PD98059]
[1]
  endosomal ROS production (OxyBURST) in response to influenza A virus: did not influence
[9]
  co-location (association) of NOX2 and p47phox caused by influenza virus: did not influence

## CO/C1=C\C(C)=C\[C@@H](C)[C@@H](O)[C@@H](C)C/C(C)=C/C=C/[C@H](OC)[C@@H]([C@@H](C)[C@@H](O)[C@H](C)[C@@]2(O)C[C@@H](O)[C@H](C)[C@@H](C(C)C)O2)OC1=O [bafilomycin A]
[1]
  NOX2 dependent ROS production in response to virus infection and to imiquimod: abolished
  endosomal ROS production (OxyBURST) in response to influenza A virus: abolished the LysoTracker fluorescence and endosomal ROS production
[9]
  co-location (association) of NOX2 and p47phox caused by influenza virus: reduced

## YGRKKRRQRRRCLVPNDCRLV-NH2 [scrambled C98i]
[10]; scrambled sequence with TAT
  inhibition of TLR7 agonist (imiquimod): not able to inhibit

## RCNA-NH2
[10]
  inhibition of TLR7 agonist, imiquimod, response in vitro (IL-6 mRNA expression): none

## COc1cc(C(C)=O)ccc1O [apocynin, 4′-Hydroxy-3′-methoxy acetophenone]
[5]; WT macrophages
  IFN-β, IL-1β, TNF-α and IL-6 expression in response to imiquimod: significantly enhanced
[14]
  IFN-β, IL-1β, TNF-α and IL-6 expression in response to poly I:C: suppressed
[15]
  increases in IFN-β, IL-1β, TNF-α and IL-6 triggered by CpG: unaffected

## CC(=O)c1ccc2c(c1)Nc1ccccc1S2 [ML171]
[1]
  endosomal ROS production (OxyBURST) in response to influenza A virus: unaffected

## catalase
[5]; 1 hr pulse catalase 1000 U/mL, after 24 h, WT macrophages
  IFN-β and IL-1β expression: significant elevations
[5]; WT macrophages
  IFN-β, IL-1β, TNF-α and IL-6 expression in response to imiquimod: significantly increased
[16]
  cytokine expression in cells expressing mutated TLR7: little or no effect
[16]; catalase
  TLR7, TREML4 or NLRP3 expression: no effect
[16]; catalase 1000 U/mL, transfected TLR7−/− macrophages
  cytokine expression in cells with WT TLR7 or TLR7C445A: markedly increased

## RCNC—NH2 (RCNC-NH2; cysteine pairing not given here)
[10]
  inhibition of TLR7 agonist, imiquimod, response in vitro (IL-6 mRNA expression): none

## RANA-NH2
[10]
  inhibition of TLR7 agonist, imiquimod, response in vitro (IL-6 mRNA expression): none
